Reference: PubChem BioAssay (NCI)
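The compound was tested at five concentrations on cells cultured in 96-well plates, with a 48-hour exposure period. Abbreviation: GI50, concentration required for 50% inhibition of growth. TGI: total growth inhibition.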

Tests used:
Experiment in all cases: NCI tumour cell line growth inhibition, 48 h
[1] = test system: OVCAR-4 ovarian
[2] = test system: UACC-257 melanoma
[3] = test system: SK-OV-3 ovarian
[4] = test system: NCI/ADR-RES ovarian
[5] = test system: HL-60(TB) leukemia
[6] = test system: HT29 colon
[7] = test system: A549 NSCLC
[8] = test system: A498 renal
[9] = test system: OVCAR-5 ovarian
[10] = test system: HCT-116 colon
[11] = test system: NCI-H23 lung
[12] = test system: K-562 leukemia
[13] = test system: UACC-62 melanoma
[14] = test system: CCRF-CEM leukemia
[15] = test system: EKVX NSCLC
[16] = test system: M14 melanoma
[17] = test system: SF-268 CNS
[18] = test system: SNB-75 CNS
[19] = test system: T-47D breast
[20] = test system: TK-10 renal
[21] = test system: MCF7 breast
[22] = test system: MOLT-4 leukemia
[23] = test system: PC-3 prostate
[24] = test system: NCI-H460 lung
[25] = test system: SW-620 colon
[26] = test system: SR leukemia
[27] = test system: SN12C renal
[28] = test system: MDA-MB-231 breast
[29] = test system: NCI-H522 lung
[30] = test system: SF-295 CNS
[31] = test system: MDA-MB-435
[32] = test system: LOX IMVI melanoma
[33] = test system: SK-MEL-28 melanoma
[34] = test system: MALME-3M melanoma
[35] = test system: CAKI-1 renal
[36] = test system: COLO 205 colon
[37] = test system: HOP-62 NSCLC
[38] = test system: U251 CNS
[39] = test system: HCT-15 colon
[40] = test system: DU-145 prostate
[41] = test system: 786-0 renal
[42] = test system: HS 578T breast
[43] = test system: BT-549 breast
[44] = test system: HCC-2998 colon
[45] = test system: OVCAR-3 ovarian
[46] = test system: SF-539 CNS
[47] = test system: ACHN renal
[48] = test system: UO-31 renal
[49] = test system: SK-MEL-2 melanoma
[50] = test system: OVCAR-8 ovarian
[51] = test system: KM12 colon
[52] = test system: SNB-19 CNS
[53] = test system: HOP-92 NSCLC
[54] = test system: RPMI-8226 leukemia

## CC(=O)Nc1c(Br)cc2c(c1Br)Cc1cc(Br)ccc1-2
[1]
  GI50: 2.47 µM
  TGI: 6.6 µM
[2]
  GI50: 19.3 µM
  TGI: > 100 µM
[3]
  GI50: 4.22 µM
  TGI: 17.2 µM
[4]
  GI50: 3.38 µM
  TGI: 13.6 µM
[5]
  GI50: 50.5 µM
  TGI: > 100 µM
[6]
  GI50: 24.3 µM
  TGI: > 100 µM
[7]
  GI50: 3.94 µM
  TGI: 14.8 µM
[8]
  GI50: 3.87 µM
  TGI: 14.9 µM
[9]
  GI50: 12 µM
  TGI: 27 µM
[10]
  GI50: 2.76 µM
  TGI: 10.9 µM
[11]
  GI50: 3.64 µM
  TGI: 16 µM
[12]
  GI50: 59.9 µM
  TGI: > 100 µM
[13]
  GI50: 11.1 µM
  TGI: > 100 µM
[14]
  GI50: 24.1 µM
  TGI: > 100 µM
[15]
  GI50: 0.392 µM
  TGI: 13.8 µM
[16]
  GI50: 3.7 µM
  TGI: 18.3 µM
[17]
  GI50: 9.04 µM
  TGI: 41 µM
[18]
  GI50: 1.24 µM
  TGI: 3.31 µM
[19]
  GI50: 3.34 µM
  TGI: > 100 µM
[20]
  GI50: 12.4 µM
  TGI: 26.1 µM
[21]
  GI50: 9.29 µM
  TGI: 96.1 µM
[22]
  GI50: > 100 µM
  TGI: > 100 µM
[23]
  GI50: 10.3 µM
  TGI: 26.2 µM
[24]
  GI50: 2.94 µM
  TGI: 11.4 µM
[25]
  GI50: 3.97 µM
  TGI: 15.6 µM
[26]
  GI50: 6.87 µM
  TGI: 31.1 µM
[27]
  GI50: 4.67 µM
  TGI: 18.9 µM
[28]
  GI50: 5.11 µM
  TGI: 20.3 µM
[29]
  GI50: 27 µM
  TGI: > 100 µM
[30]
  GI50: 1.61 µM
  TGI: 3.76 µM
[31]
  GI50: 4.15 µM
  TGI: 21.1 µM
[32]
  GI50: 2.28 µM
  TGI: 6.6 µM
[33]
  GI50: 5.54 µM
  TGI: 24.4 µM
[34]
  GI50: 7.26 µM
  TGI: 53.4 µM
[35]
  GI50: 1.98 µM
  TGI: 10.7 µM
[36]
  GI50: 2.44 µM
  TGI: 13.1 µM
[37]
  GI50: 2.51 µM
  TGI: 13.9 µM
[38]
  GI50: 3.32 µM
  TGI: 12.4 µM
[39]
  GI50: 12.3 µM
  TGI: > 100 µM
[40]
  GI50: 6.44 µM
  TGI: 21.4 µM
[41]
  GI50: 1.83 µM
  TGI: 3.43 µM
[42]
  GI50: 1.96 µM
  TGI: 5.73 µM
[43]
  GI50: 2.83 µM
  TGI: 13.4 µM
[44]
  GI50: 3.01 µM
  TGI: 11.8 µM
[45]
  GI50: 8.42 µM
  TGI: 21.1 µM
[46]
  GI50: 13.6 µM
  TGI: 33.2 µM
[47]
  GI50: 3.17 µM
  TGI: 14.1 µM
[48]
  GI50: 0.581 µM
  TGI: 13.7 µM
[49]
  GI50: 12.6 µM
  TGI: 32.7 µM
[50]
  GI50: 4.62 µM
  TGI: 18.8 µM
[51]
  GI50: 11.6 µM
  TGI: 55.1 µM
[52]
  GI50: 12.8 µM
  TGI: 43 µM
[53]
  GI50: 0.675 µM
  TGI: 22.5 µM
[54]
  GI50: 50.5 µM
  TGI: > 100 µM
